Values joined by “and” are separate entries in the source; they are usually repeats but may differ in a detail not shown here. Identical values can stand only once. Active and inactive are the calls of the source.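 The calls were made as follows: active = compounds giving half or more protection of infected cells from virus-caused growth loss, again on retest; inactive = the rest.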
Test system: CEM cells HIV-1 protection, formazan growth assay
Assay: NCI AIDS Antiviral Assay
Conditions: for IC50: measured here: growth of uninfected CEM cells
Experimental: The ability of compounds to protect human CEM cells from HIV-1 infection is measured as a screen for new compounds capable of inhibiting the HIV virus. Five concentrations of drug were tested on uninfected and infected cells and cell growth was measured using a soluble formazan assay. […] Compounds that provided at least 50% protection were retested. Compounds that provided at least 50% protection on retest were listed as moderately active. Compounds that reproducibly provided 100% protection were listed as confirmed active. […] Note that the inability to provide protection could be due to toxicity.

Row | Compound | EC50 | IC50 | outcome
1 | C=CCN(CC=C)C(=O)Nc1ccc(C(=O)N/N=C/c2cccc(OC)c2OC)cc1 | 89.1 µM | 170 µM | –
2 | CC(/C=C1\N=C(c2ccccc2)OC1=O)=C\c1ccccc1 | > 200 µM | 105 µM | –
3 | CCOC(=O)C(NC(=O)c1ccccc1)[CH](c1ccc(OC)cc1)[Sn]([c]1ccccc1)([c]1ccccc1)[c]1ccccc1 (stereo not drawn) | 34.7 µM | 81.3 µM | –
4 | CCN(CC)CCOC(=O)CCN1CC2CCC(CC2)C1 | > 200 µM | > 200 µM | –
5 | CSc1c(C(=O)Nc2ccc(Cl)cc2)c(N)n(N)c(=O)c1C#N | > 200 µM | 40.7 µM | –
6 | COc1cc(COC(=O)N(C)[C@@H](Cc2ccccc2)C(=O)O)c([N+](=O)[O-])cc1OC | > 603 µM | 302 µM | –
7 | O=C1COc2cc3c(cc2N1)SCCC(=O)N3 | > 39.8 µM | > 39.8 µM | –
8 | CSc1nc(N)n(C(=O)c2ccccc2Br)n1 | > 417 µM | > 417 µM | –
9 | CCOC(=O)C[C@@]12CCCNC1(C)CCc1ccccc12 (stereo partly drawn) | – | – | inactive
10 | COCCCC(=O)NC(c1ccccc1)(c1ccccc1)c1ccccc1 | > 200 µM | > 200 µM | –
11 | CCCCCCCCOC1OC(COC(C)=O)C(OC(C)=O)C(OC(C)=O)C1OC(C)=O (stereo not drawn) | > 100 µM | > 100 µM and 95.5 µM | –
12 | NC1=NN(c2ccc(Br)cc2)C2C=CC=CN12 (stereo not drawn) | > 200 µM | 151 µM | –
13 | COc1cc(/C=C/C(=O)C(C)(C)C)cc(OC)c1OC | > 178 µM | 11.5 µM | –
14 | CC1CCOS(=O)O1 (stereo not drawn) | > 1820 µM | > 1820 µM | –
15 | CCOc1ccc(-n2c(=O)n3c(Nc4ccc(Cl)cc4)nc4c(c(=O)n(C)c(=O)n4C)n3c2=O)cc1 | > 100 µM | 66.1 µM | –
16 | COC(=O)C1CC23CC1(OC(C)=O)CCC2c1ccc(OC)cc1C3=O (stereo not drawn) | > 61.7 µM | > 61.7 µM | –
17 | Oc1cc(Cl)c(Cl)cc1Cl | – | – | inactive
18 | CC1=C(C(=O)NNC(=O)c2ccccc2)CC(C(=O)NNC(=O)c2ccccc2)=C(C)N1 | > 200 µM | > 200 µM | –
19 | c1ccc(C(=C2C3CCC2C2CSCC32)c2ccccc2)cc1 (stereo not drawn) | > 93.3 µM | 46.8 µM | –
20 | CC(C)NC(=O)OCCN=c1c2ccccc2ccc2ccccc12 | > 200 µM | 93.3 µM | –
21 | Cc1cn(C2CC(NO)C(CO)O2)c(=O)[nH]c1=O (stereo not drawn) | 38.9 µM | 178 µM | –
22 | COc1ccc(C2(OC)Oc3ccccc3C(=O)C2(O)O)cc1 (stereo not drawn) | > 200 µM | 12.6 µM | –

Row | Compound | EC50 | IC50 | outcome
23 | CCOC(=O)c1nc(SC)n(C)c1C(=O)OCC | > 200 µM | > 200 µM | –
24 | CCOC(=O)Cc1csc(/N=C\c2c(O)c3ccccc3oc2=O)n1 | > 200 µM | 40.7 µM | –
25 | COC(=O)C1=C(O)C(O)=C(C(=O)OC)C1 | 407 µM | 955 µM | –
26 | COC(=O)Nc1cn2c(n1)SCC2 | > 200 µM | > 200 µM | –
27 | CN(C)CC/C=C1/c2ccccc2Sc2ccc(Cl)cc21 | > 200 µM | 27.5 µM | –
28 | O=C(CCCC[P+](c1ccccc1)(c1ccccc1)c1ccccc1)c1ccccc1 | > 200 µM | 0.661 µM | –
29 | CCOC(=O)C(=O)Nc1ccccc1OCC | > 209 µM | > 209 µM | –
30 | CC1(C)C(O)CC[C@@]2(C)C1CC[C@]1(C)C2CC=C2[C@@H]3C[C@](C)(C(=O)O)CC[C@]3(C)CCC21C (stereo partly drawn) | > 200 µM | 27.5 µM | –
31 | Cc1cnc(/N=c2\sc(C)cn2-c2ncc(C)s2)s1 | > 200 µM | > 200 µM | –
32 | COc1cccc(C=C(C(C)=O)C(C)=O)c1 | > 120 µM | 58.9 µM | –
33 | COc1cc(C2C3=C(N=C4SC(C(C)=O)=C(C)N42)c2ccccc2CC3)cc(OC)c1OC (stereo not drawn) | > 200 µM | 40.7 µM | –
34 | CN1S(=O)(=O)N(C)P12(N=P(CP(=NP13(N(C)S(=O)(=O)N1C)N(C)S(=O)(=O)N3C)(c1ccccc1)c1ccccc1)(c1ccccc1)c1ccccc1)N(C)S(=O)(=O)N2C | > 70.8 µM | > 70.8 µM | –
35 | CC1(C)CCC(C)(C)c2cc(NC(=O)c3ccc(C(=O)O)cc3)ccc21 | > 200 µM | 95.5 µM | –
36 | CC(=O)OC1CC2C(=S)Nc3cc4c(cc3C(=O)N2C1)OCO4 (stereo not drawn) | > 200 µM | > 200 µM | –
37 | C=C1c2nc3ccccc3n2C=C(c2ccc(Cl)cc2)N1c1ccc(OC)cc1 | > 200 µM | 18.6 µM | –
38 | CN1C(=O)CN2CCc3ccccc3C2c2cc(Cl)ccc21 (stereo not drawn) | > 200 µM | 129 µM | –
39 | CCOc1ccccc1C1N2CCN(CC2)C(c2ccccc2OCC)N2CCN1CC2 (stereo not drawn) | – | – | inactive
40 | Nc1ccn(CCOC(=O)c2ccccc2)c(=O)n1 | > 52.5 µM | > 52.5 µM | –
41 | CCOc1c(OC)cc(CNNc2nccs2)cc1OC | > 200 µM | 89.1 µM | –
42 | O=C1CC(=O)NC(=NN2C(=O)/C(=C/C(=O)c3ccco3)N=C2c2ccccc2)N1 | > 200 µM | 32.4 µM | –
43 | NS(=O)(=O)c1nn2c(Br)c(-c3ccccc3)nc2s1 | > 200 µM | 1.78 µM | –

Source: PubChem BioAssay AID179 (DTP/NCI, 2004)
